ChEMBL document CHEMBL3734745, “Synthesis of six mexiletine derivatives with isoindolines attached as potential antioxidants and their evaluation as cardioprotective agents” (Medchemcomm, 2015)
Calls of active or inactive are those of the source. The rule behind the calls is not given here.

How the values were obtained:
Aorta = assay: Antioxidant activity in NADPH stimulated Sprague-Dawley rat aorta assessed as reduction in photon emission at 10 uM incubated for 45 mins by lucigenin-enhanced chemiluminescence assay; type: functional, tissue-based
Right cardiac atrium [1] = assay: Reduction in resting atrial rate in Guinea pig right atria at 100 uM by electrogram (reference value: 175 to 200 bpm); type: functional, Cavia porcellus
Right cardiac atrium [2] = assay: Increase in absolute refractory period in Guinea pig right atria at 100 uM incubated for 30 mins by electrogram; type: functional; conditions: Cavia porcellus
Erythrocyte = assay: Antioxidant activity in C57Bl/6 mouse erythrocyte assessed as increase in AAPH-induced hemolysis time incubated for 30 mins by spectrophotometry; type: functional, cell-based
RAW264.7 [3] = assay: Antioxidant activity in phorbol 12,13-dibutyrate stimulated mouse RAW264.7 cells assessed as inhibition of ROS generation by measuring the reduction in photon emission at 100 uM incubated for 60 mins by L-012-enhanced chemiluminescence assay relative to control; type: functional
Cavia porcellus = species: Cavia porcellus; assay: Effect on papillary muscle refractory period in Guinea pig at 100 uM by electrogram; type: functional, tissue-based
Rattus norvegicus = species: Rattus norvegicus; assay: (§1) Cardio-protective anti-ischemic activity in rat H9c2(2-1) cells assessed as reduction in cell death at 5 uM incubated for 12 hrs under hypoxic simulated ischemia by propidium iodide exclusion assay; type: functional
RAW264.7 [4] = assay: Cytotoxicity against mouse RAW264.7 cells assessed as cell viability at 100 uM by MTS assay; type: cell-based; conditions: raw264.7, 100 µM
[5] = Toxicity in rat H9c2(2-1) cells assessed as cell death at 10 uM incubated for 12 hrs under hypoxic simulated ischemia by propidium iodide exclusion assay; type: cell-based
[6] = as §1; type: functional; parameters: scale not given: the % may be the effect or the level left

Cc1cccc(C)c1OCC(C)N (stereo not drawn) [MEXILETINE]
Activity (Aorta): inactive | Activity (Right cardiac atrium [1]): 15 bpm | Activity (Right cardiac atrium [2]): Active | Activity (Erythrocyte): inactive | Activity (RAW264.7 [3]): inactive | Activity (Cavia porcellus): Active | Activity (Rattus norvegicus): inactive

CC(COc1c(Cl)cccc1Cl)NCc1ccc2c(c1)C(C)(C)N(O)C2(C)C (stereo not drawn)
Activity (RAW264.7 [4]): Non-toxic

Cc1cccc(C)c1OCC(C)NCc1ccc2c(c1)C(C)(C)N([O])C2(C)C (stereo not drawn)
Activity (Right cardiac atrium [1]; Cavia porcellus): Active | Activity (Right cardiac atrium [2]): Active | Activity (RAW264.7 [3]): inactive | Activity (Cavia porcellus): inactive

Cc1cccc(C)c1OCC(C)NCc1ccc2c(c1)C(C)(C)N(O)C2(C)C (stereo not drawn)
Activity (Right cardiac atrium [1]; Cavia porcellus): Active | Activity (Right cardiac atrium [2]): Active | Activity [5]: Toxic | Activity (RAW264.7 [3]): inactive | Activity (Cavia porcellus): inactive | Activity (Rattus norvegicus): Active

CC1(C)c2ccccc2C(C)(C)N1O
Activity (Aorta): inactive | Activity (Erythrocyte): inactive | Activity (RAW264.7 [4]): Non-toxic

CC(COc1c(Cl)cccc1Cl)NCc1ccc2c(c1)C(C)(C)NC2(C)C (stereo not drawn)
Activity (RAW264.7 [4]): Non-toxic

CC1(C)c2ccccc2C(C)(C)N1[O]
Activity (Aorta): inactive | Activity (Erythrocyte): inactive | Activity (RAW264.7 [4]): Non-toxic

CC(COc1c(Cl)cccc1Cl)NCc1ccc2c(c1)C(C)(C)N([O])C2(C)C (stereo not drawn)
Activity (Right cardiac atrium [1]; Cavia porcellus): Active | Activity (Right cardiac atrium [2]): inactive | Activity [5]: Toxic | Activity (Cavia porcellus): inactive | Activity (Rattus norvegicus): Active | Activity (RAW264.7 [4]): Non-toxic

Cc1cccc(C)c1OCC(C)NCc1ccc2c(c1)C(C)(C)NC2(C)C (stereo not drawn)
Activity (Right cardiac atrium [1]; Cavia porcellus): Active | Activity (Right cardiac atrium [2]): Active | Activity [5]: Toxic | Activity (RAW264.7 [3]): inactive | Activity (Cavia porcellus): inactive | Activity [6]: 55%

CC(N)COc1c(Cl)cccc1Cl (stereo not drawn)
Activity (Right cardiac atrium [1]): 15 bpm | Activity (Right cardiac atrium [2]): Active | Activity (Cavia porcellus): inactive

CC1(C)NC(C)(C)c2ccccc21
Activity (Aorta): inactive | Activity (Erythrocyte): inactive | Activity (RAW264.7 [4]): Non-toxic
